Experimental data taken from a melting point compilation (Tetko et al.; mined from patent text by program, amines drawn as free bases though some values may be those of a salt).
Non-standard residues stand in square brackets, D forms with d. Residues, ends and D or L forms follow the SMILES beside them. *: point of attachment. 1Nal = N[C@@H](Cc1cccc2ccccc12)C(=O)O; Sta = CC(C)C[C@H](N)[C@@H](O)CC(=O)O; Cbz = O=C(OCc1ccccc1)*; NHNH2 = NN*

Row | SMILES | melting point
1 | CC=C(CC)c1nc(C)nc2c1c(C)c(C)n2-c1c(C)cc(C)cc1C | 59 to 61 °C
2 | COc1cccc(-c2cc(C#N)c(SC)[nH]2)c1 | 112 to 113 °C
3 | Cc1nc2ccccc2n1CCOCCCl | 96 to 98 °C
4 | O=C1c2c(c(=O)n3nc(-c4ccccc4)cc3n2Cc2ccccc2)CN1C1CCCCC1 | 276 to 278 °C
5 | CCCCCc1ccc(-c2ccc(-c3nc(N)nc(N)n3)cc2)cc1 | 242 to 244 °C
6 | O=C(NC1CCN(C/C=C\CC(c2ccccc2)c2ccccc2)CC1)c1ccccc1Oc1ccccc1 | 91 to 94 °C
7 | COc1c(C)c(OC(=O)c2c(C)c(C)c(OCCCN3C(=O)c4ccccc4S3(O)O)c(C)c2OC)c(C)c(C)c1C(=O)O | 222 to 223 °C
8 | CC(C)n1nc(-c2cc(NC(=O)OC(C)(C)C)cnc2-c2ccccc2)ccc1=O | 221 to 223 °C
9 | O=C(O)c1ccc2c(c1)Cc1cccnc1O2 | 285 to 286 °C
10 | CCC(=C(c1ccccc1)c1ccc(C=CC(=O)O)cc1)c1ccccc1 | 148 to 150 °C
11 | CC(C)(C)c1nn(-c2ccc([N+](=O)[O-])cc2Cl)c(=O)o1 | 98 °C
12 | CCCCC(=O)Nc1c(C)c(C)c2c(c1C)C(c1ccc(C)cc1)C(C)(C)O2 (stereo not given) | 156 to 157 °C
13 | CCOc1ccc(-c2nc3n(c2-c2ccncc2)CCC3)cc1 | 133 to 135 °C
14 | CSC1C(=O)CC2C3CCC4=CC(=O)C=CC4(C)C3(F)C(OC(C)=O)CC12C (stereo not given) | 235 to 237 °C
15 | Cc1nc(OCCCc2cc(OC(C)C)nn2Cc2ccc(Cl)cc2Cl)c(CC#N)s1 | 92 to 93 °C
16 | O=C(Nc1ccccc1Br)OCc1cn(-c2cc3cc(C(=O)O)c(=O)[nH]c3cc2C(F)(F)F)cn1 | 145 to 147 °C
17 | Nc1n[nH]cc1S(=O)(=O)c1ccccc1 | 159 to 161 °C
18 | CC(C)Oc1c(C(N)=O)n(C)c2ccc(OCc3ccccc3)cc12 | 164 to 166 °C
19 | O=C(Nc1ccc(-c2ncc(-c3ccc(NC(=O)C4CCCCCC4)cc3)[nH]2)cc1)c1ccc(F)cc1 | 314 to 316 °C
20 | Cc1cccc2c1nc(-c1ccccc1[N+](=O)[O-])n2CC(C)O (stereo not given) | 171 to 172 °C
21 | CCCCc1c(C(=O)c2ccc(O)cc2)sc2ccc([N+](=O)[O-])cc12 | 182 °C
22 | CCc1cnc(NC(=O)C(c2ccccc2)c2ccccc2)o1 | 148 to 149 °C
23 | N#Cc1ccc(NC(=O)CCC2CCCC(=O)O2)cc1 (stereo not given) | 145 to 148 °C

Row | SMILES | melting point
24 | NCCCCNC(=O)C(=O)NCCCCN | 106 to 108 °C
25 | CCCn1c(=O)c2[nH]c(/C=C/c3ccc4c(c3)OCO4)nc2n(CCC)c1=O | > 270 °C
26 | NCC(O)COc1ccc(OCC(O)CN)cc1 (stereo not given) | 128 to 132 °C
27 | CCCCc1nc(Cl)c(CC(=O)OCC)c(Cc2ccc(-c3ccccc3C#N)cc2)n1 | 66 °C
28 | Cc1nc(NC(=O)c2ccccc2)sc1C(=O)n1ccnc1 | 228 to 231 °C
29 | O=C(NC1CCSC2COCC(C(=O)O)N2C1=O)C(S)Cc1ccccc1 (stereo not given) | 224 to 226 °C
30 | CC(C)N(CCN1C(=O)/C(=N/NC(N)=O)c2cc(F)ccc21)C(C)C | 158 to 160 °C
31 | CC(C)(C)[Si](C)(C)Oc1ccc(C(=O)Oc2ccc(C(=O)O)cn2)cc1C12CC3CC(CC(C3)C1)C2 | 188 to 190 °C
32 | O=C(c1cccnc1)c1ccc(Cl)c([N+](=O)[O-])c1 | 112 to 113 °C
33 | CNC1CCN(c2c(F)c(N)c3c(=O)c(C(=O)O)cn(C4CC4)c3c2C)C1 (stereo not given) | 200 to 202 °C
34 | O=Cc1cc(-n2nnnc2C(F)(F)F)ccc1OC(F)(F)F | 40 to 42 °C
35 | O=C=Nc1c(F)cc(Cl)c2nc(Cl)sc12 | 95 to 98 °C
36 | CCOC(=O)CNC(=O)c1csc(NC(=N)N)n1 | 190 °C
37 | O=C1c2ccccc2S(=O)(=O)N1Cn1nnn(-c2ccccc2)c1=S | 140 to 142 °C
38 | CCOc1cc(C#N)ccc1C(=O)Nc1cc(Cl)c(Cl)cc1N | 195 to 198 °C
39 | COC(=O)c1c(C(F)(F)F)noc1NS(=O)(=O)c1ccccc1 | 100 to 101 °C
40 | CCC(=O)N(C)c1cccc(-c2ccnc3c(C(=O)c4ccco4)cnn23)c1 | 153 to 155 °C
41 | COc1cc(C=CC=O)ccc1OC(C)=O | 83 to 86 °C
42 | CCOC(=O)C(C)(C)Oc1cccc2c1C[C@@H](OC)[C@H](O)C2 (relative stereo) | 153 to 155 °C
43 | N#Cc1ccc2cc(CCCc3cc4ccc(C#N)cc4o3)oc2c1 | 199 to 201 °C
44 | Cc1cccc(C)c1NC(=O)Nc1ccc(CC(=O)NC(CC(C)C)c2ncc(CCC(=O)O)s2)cc1 (stereo not given) | 125 to 127 °C
45 | O=C(N[C@@H](Cc1c[nH]c2ccccc12)C(=O)O)c1ccc([N+](=O)[O-])cc1 | 115 to 117 °C
46 | CC1(C)c2cc(OCc3ccccc3)ccc2OC1CO (stereo not given) | 55 to 58 °C

Row | SMILES | melting point
47 | c1csc(N=C2SC[C@@H]3Cc4ccccc4CN23)c1 | 112 °C
48 | C=CCNc1nc(NCC=C)nc(N2CCNCC2)n1 | 93 to 94.5 °C
49 | C[C@H](NC(=O)c1cccc(NS(=O)(=O)CC2CN(C(c3ccc(Cl)cc3)c3ccc(Cl)cc3)C2)c1)C(N)=O | 229 °C
50 | CCc1nn(C2CCC2)c2cc(C(=O)O)ccc12 | 148 to 150 °C
51 | Cc1noc(NS(=O)(=O)c2ccsc2C(N)=O)c1Br | 168 to 170 °C
52 | CC(C)(C)[S@@](=O)/N=C/c1cc(F)cc(C#N)c1 | 93 to 99 °C
53 | CCC1(CC)C(=O)N(C(C)(C)CO)CC(C)(C)N1OC(C)(C)C#N | 58 to 66 °C
54 | O=C([C@H]1CCc2cc(Cl)c(Cl)cc21)N1CCSC[C@H]1CN1CCCC1 | 123 to 124 °C
55 | O=C(O)CCCCC1Cc2ccc(F)cc2C1=O (stereo not given) | 122 to 123 °C
56 | CCNC(=S)N1CCc2[nH]cnc2C1 | 185 °C
57 | O=Cc1cc2sccc2c2ccccc12 | 101 to 102 °C
58 | O=C(C=Cc1c(Cl)cccc1Cl)c1c(Cl)cccc1Cl | 124 to 125 °C
59 | CC(=O)NC[C@H]1CN(c2ccc(N3CCC4(CC3)COCO4)c(F)c2)C(=O)O1 | 142 to 144 °C
60 | CC(=O)Oc1cccc2c1C(=O)c1c(OC(C)=O)cc(-c3nc4ccccc4n3C)cc1C2=O | 279 to 280 °C
61 | CC(C)(C)OC(=O)NN=Cc1ccccc1 | 184 to 186 °C
62 | CC(C)C[C@H](NC(=O)[C@H](Cc1c[nH]cn1)NC(=O)[C@H](Cc1cccc2ccccc12)NC(=O)OCc1ccccc1)[C@@H](O)CC(=O)NN (Cbz-[1Nal]-His-[Sta]-NHNH2) | 120 to 127 °C
63 | CCOc1ccc(-c2nnc(Nc3ccc(Br)c(Cl)c3)s2)cc1 | 225 to 226 °C
64 | CC(C)(C)OC(=O)NCCCCC(NC(=O)OCc1ccccc1)C(N)=O (stereo not given) | 140 to 142 °C
65 | C=Cc1c(N)nc(-c2ccc(Cl)c(OC)c2F)nc1C(=O)OC | 145 to 147 °C
66 | CC(CC(C(=O)N(C)C)(c1ccccc1)c1ccccc1)N1CCC(NC(=O)c2cccc(C(F)(F)F)c2)C(O)C1 (stereo not given) | 141 °C
67 | O=[N+]([O-])c1cc(Cl)c2c(c1)C(F)(F)C(F)(F)S2 | 61.5 to 62 °C

More lines, now with the values ahead:

Row | melting point | SMILES
68 | 87 to 88 °C | CC(C)(C)OC(=O)NCCSc1cc(-c2ccccc2)on1
69 | 228 to 229 °C | NCC1=C(CCC(=O)O)CC=CC1
70 | 97 °C | CNC(=O)[C@@H]1C[C@@H](Oc2ccccc2)CN1S(=O)(=O)c1ccc(Cl)c(COc2cccc3c(-n4ccnc4)cc(C)nc23)c1Cl
71 | 143 to 145 °C | CC(C)NCC(O)COc1cccc2c1CCCC(=O)N2 (stereo not given)
72 | 148 to 149 °C | O=C(c1cccc(C(=O)c2ccc(F)c([N+](=O)[O-])c2)c1)c1ccc(F)c([N+](=O)[O-])c1
73 | 121 to 122 °C | N#Cc1cnn(-c2nc(Cl)c(C(F)(F)F)cc2Cl)c1Br
74 | 32 to 34 °C | C#Cc1ccc(C(=O)Cl)cc1
75 | 277 °C | Cc1ccc(N2C(=O)C(O)=C(C(=O)c3ccc(OC(F)(F)F)cc3)C2c2ccc(Cn3nccn3)cc2)nn1 (stereo not given)
76 | 174 °C | O=C(Nc1ccc(N2CCCC2=O)cc1)OCc1ccccc1
77 | 219 °C | CSc1ccc(-c2n[nH]c(=S)cc2-c2ccc(F)cc2)cc1
78 | 85 to 87 °C | O=c1n(CCCCN2CCN(c3ccccc3)CC2)nc2n1-c1ccccc1OC2
79 | 132 °C | CSC1C(OC(C)=O)C(COC(C)=O)OC1n1ccc(=O)[nH]c1=O (stereo not given)
80 | 155 to 157 °C | CC(c1oc2ccccc2c(=O)c1-c1cccc(F)c1)n1nc(-c2cccc(OC(F)(F)F)c2)c2c(N)ncnc21 (stereo not given)
81 | 142 to 144 °C | CON1CCC2(CC1)NC(=O)C(Cl)(c1cc(C)ccc1C)C2=O (stereo not given)
82 | 123 to 125 °C | CN(C)CCCn1c(-c2ccccc2)cc2c1CCS(=O)(=O)C2
83 | 205 to 207 °C | CC1CCC(=NNc2ccccc2)c2ncc(C(=O)NN)c(=O)n21 (stereo not given)
84 | 33 to 35 °C | CCOC(CBr)(OCC)C(=NOC)C(=O)Cl

Row | melting point | SMILES
85 | 135 to 138 °C | CN(O)C(=O)c1ccc(C=Cc2ccccn2)cc1
86 | 205 to 207 °C | CC(C)(C)OC(=O)N[C@@H]1CCCC[C@H]1OCC(=O)O (relative stereo)
87 | 138 °C | O=C(O)CCc1cc2cc(C(=O)c3ccccc3)ccc2n1S(=O)(=O)c1ccccc1
88 | 295 to 297 °C | CC1N=NC2=CN=C(c3ccccc3Cl)c3cc(C(=O)Cl)ccc3N21 (stereo not given)
89 | 214 °C | CC(=O)N1CCC(Nc2nc3ccccc3n2Cc2ccc(CO)o2)CC1
90 | 140 °C | CC(=O)N1c2ccc(-c3ccc(C#N)cc3)cc2C(Nc2ccc(F)cc2)CC1C (stereo not given)
91 | 135 to 136 °C | CCn1ncc2c(NCC3CCC(C(=O)OCSC)CC3)c3ccccc3nc21 (stereo not given)
92 | 176 °C | CC1(C)CC(=O)C(C(=O)Nc2ccc(C(F)(F)F)cc2)C(=O)O1 (stereo not given)
93 | 57 to 58 °C | CCOC(=O)C=CC(=O)c1ccc(Oc2ccc(Cl)cc2)cc1
94 | 136 to 138 °C | COC(=O)c1cc(O)cc(O)c1C
95 | 240 °C | N#Cc1cccc(C2=Nc3ccc(-c4cccc(F)c4F)cc3NC(=O)C2)c1
96 | 175 to 177 °C | CS(=O)(=O)c1ccc(Br)cc1[N+](=O)[O-]
97 | > 300 °C | N=C(N)c1ccc2nc(-c3ccc(-c4nc5ccc(C(=N)N)cc5[nH]4)o3)[nH]c2c1
98 | 46 to 47 °C | N#CC1(N)CCOCC1
99 | 215 °C | O=C(O)/C=C/c1ccc(C(=O)NCC2CCCO2)cc1 (stereo not given)
100 | 295 to 296 °C | Cc1[nH]c(=O)[nH]c1C(=O)c1ccncc1
